assay: log P value (octanol/water partition coefficient); conditions: not given

| Molecule | logP |
| --- | --- |
| CSc1ccc(C(=O)C(C)(C)N2CCOCC2)cc1 [IRGACURE 907, 2-methyl-1-(4-methylthiophenyl)-2-morpholinopropan-1-one] | 2.09 |

same assay, conditions: octanol/water

| Molecule | logP |
| --- | --- |
| C=CC(=O)OCCCCCCCCCCOC(=O)C=C [1,10-decanediol diacrylate] | 4.1 |

same assay, conditions: octanol/water partition coefficient

| Molecule | log P |
| --- | --- |
| CCc1cc(CC)c2sc3ccccc3c(=O)c2c1 [KAYACURE DETX-S, diethylthioxanthone] | 5.12 |
| bisphenol A di(meth)acrylate | 5.46 |
| bisphenol A-propylene oxide (2 mole) adduct di(meth)acrylate | 6.10 |
| bisphenol A-propylene oxide (4 mole) adduct di(meth)acrylate | 6.43 |
| neopentyl glycol hydroxypivalate-(meth)acrylic acid adduct | 3.35 |
| p-phenylphenol (meth)acrylate | 3.98 |
| tricyclodecanedimethanol diacrylate [LIGHT ACRYLATE DCP-A] | 3.05 |

Source: patent US20160033699A1, “POLARIZING PLATE” (NITTO DENKO CORPORATION, priority 2014, published 2016)
